Data as given in patent US20240067633A1, “KETOHEXOKINASE INHIBITOR AND USE THEREOF” (SICHUAN HAISCO PHARMACEUTICAL CO., LTD., priority 2020, published 2024).

Assays:
hKHK-C = hKHK-C (Homo sapiens (Human), UniProt P50053); test: Experiment of inhibitory activity against KHK in vitro (ADP-glo), hKHKc; assay type: biochemical; conditions: purified hKHK-C, 50 mM fructose, 0.2 mM ATP
Protocol: (§1) With the involvement of ATP, fructokinase phosphorylates fructose to produce fructose-1-phosphate and ADP. In this experiment, the effect of the compound on the activity of fructokinase was determined by measuring the amount of ADP produced in the process. Test compound stocks were prepared in DMSO. Before use, the stocks were 3-fold serially diluted with assay buffers (25 mM HEPES, 300 mM KCl, 10 mM MgCl2, 10 mM CaCl2), pH 7.0) to 5-fold the final concentration tested, and the DMSO content was adjusted to 1%. In a 384-well plate, the test compound was added to achieve a final concentration of 7.6 nM to 100 μM (assay buffers containing 1% DMSO were added to background and control wells). 5 ng/μL purified hKHK-C (assay buffers were added to background wells), 50 mM fructose and 0.2 mM ATP were added to reach a total volume of 10 μL and reacted at room temperature for 30 min. After the reaction was completed, 10 μL of ADP-glo (promega) was added and mixed uniformly, and the plate was incubated at room temperature for 40 min. Then the ADP-glo was added again, mixed uniformly and reacted for 40 min. The spontaneous luminescence intensity was measured using an Envision microplate reader. The inhibition rate of the compound against […] was calculated using the following formula,
(§2) [formula] • wherein • RLUZPE=luminescence intensity of control well • RLUblank=luminescence intensity of background well • RLUcpd=luminescence intensity of test compound well
(§3) A curve of inhibition rate (y-axis) versus compound concentration (x-axis) was fitted by logarithmic (inhibitor) and normalized response (variable slope) in GraphPad Prism, and EC50 was calculated.

[1] = Pharmacokinetic experiment in rats; assay type: in vivo, SD rats
Protocol: 2.1 Experimental animals: Male SD rats, about 220 g, 6-8 weeks old, 6 rats/compound, purchased from Hunan SJA Laboratory Animal Co., Ltd.
2.2 Experimental design: On the day of the experiment, 6 SD rats were randomly grouped according to their body weight. The animals were fasted with water available for 12 to 14 h one day before the administration, and were fed 4 h after the administration.
(§4) Vehicle for intravenous administration: 5% DMA+5% Solutol+90% Saline; Vehicle for intragastric administration: 0.5% MC
(§5) Before and after the administration, 0.15 mL of blood was taken from the orbit of the animals under isoflurane anaesthesia and placed in an EDTAK2 centrifuge tube. The blood was centrifuged at 5000 rpm and 4° C. for 10 min to collect plasma. Blood sampling time points for the intravenous administration group: 0, 5 min, 15 min, 30 min, 1 h, 2 h, 4 h, 6 h, 8 h, and 24 h; and blood sampling time points for the intragastric administration group: 0, 5 min, 15 min, 30 min, 1 h, 2 h, 4 h, 6 h, 8 h, and 24 h. Before analysis and detection, all samples were stored at −80° C.

[2] = Pharmacokinetic experiment in mice; assay type: in vivo, ICR mice
Protocol: 3.1 Experimental animals: male ICR mice, about 22 g, 6-8 weeks old, 18 mice/compound, purchased from Hunan SJA Laboratory Animal Co., Ltd.
3.2 Experimental design: On the day of the experiment, 18 ICR mice were randomly grouped according to their body weight. The animals were fasted with water available for 12 to 14 h one day before the administration, and were fed 4 h after the administration.
as §4
as §5, with “0.08” for “0.15”

CYP2D6 = CYP2D6 (Homo sapiens (Human), UniProt P10635); test: CYP450 enzyme inhibition test, mixed human liver microsomes; assay type: in vitro ADME; conditions: 0.05-50 μM
CYP3A4 = CYP3A4 (Homo sapiens (Human), UniProt P08684); test: as above; assay type: in vitro ADME; conditions: 0.05-50 μM
hKHKa = hKHKa (Homo sapiens (Human), UniProt P50053); test: Experiment of inhibitory activity against KHK in vitro (ADP-glo), hKHKa; assay type: biochemical
Protocol: [The source words this procedure for another variant and reports this variant under the same test.] as §1, §2, §3

mKHKc = mKHKc (Mus musculus (Mouse), UniProt P97328); test: Experiment of inhibitory activity against KHK in vitro (ADP-glo), mKHKc; assay type: biochemical
Protocol: [The source words this procedure for another species and reports this species under the same test.] as §1, with “5 ng/μL purified hKHK-C (assay buffers were added to background wells), 50 mM fructose and 0.2 mM ATP were added to reach a total volume of 10 μL and reacted at room temperature for 30 min. After the reaction was completed, 10 μL of ADP-glo (promega) was added and mixed uniformly, and the plate was incubated at room temperature for 40 min. Then the ADP-glo was added again, mixed uniformly and reacted for 40 min.” left out
as §2, §3

rKHKc = rKHKc (Rattus norvegicus (Rat), UniProt Q02974); test: Experiment of inhibitory activity against KHK in vitro (ADP-glo), rKHKc; assay type: biochemical
Protocol: [The source words this procedure for another species and reports this species under the same test.] as §1, with “5 ng/μL purified hKHK-C (assay buffers were added to background wells), 50 mM fructose and 0.2 mM ATP were added to reach a total volume of 10 μL and reacted at room temperature for 30 min. After the reaction was completed, 10 μL of ADP-glo (promega) was added and mixed uniformly, and the plate was incubated at room temperature for 40 min. Then the ADP-glo was added again, mixed uniformly and reacted for 40 min.” left out
as §2, §3

Sequence of hKHKa (P50053 other isoform, or with tags, fused parts or gaps): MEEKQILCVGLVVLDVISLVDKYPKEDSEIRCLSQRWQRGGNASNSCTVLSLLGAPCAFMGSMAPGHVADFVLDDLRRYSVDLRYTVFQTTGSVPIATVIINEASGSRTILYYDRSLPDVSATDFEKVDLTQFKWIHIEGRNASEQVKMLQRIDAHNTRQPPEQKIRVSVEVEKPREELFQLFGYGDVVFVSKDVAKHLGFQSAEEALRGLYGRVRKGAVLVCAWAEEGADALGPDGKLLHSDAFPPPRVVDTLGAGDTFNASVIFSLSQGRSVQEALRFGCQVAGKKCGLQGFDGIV
Sequence of hKHK-C (P50053 whole entry): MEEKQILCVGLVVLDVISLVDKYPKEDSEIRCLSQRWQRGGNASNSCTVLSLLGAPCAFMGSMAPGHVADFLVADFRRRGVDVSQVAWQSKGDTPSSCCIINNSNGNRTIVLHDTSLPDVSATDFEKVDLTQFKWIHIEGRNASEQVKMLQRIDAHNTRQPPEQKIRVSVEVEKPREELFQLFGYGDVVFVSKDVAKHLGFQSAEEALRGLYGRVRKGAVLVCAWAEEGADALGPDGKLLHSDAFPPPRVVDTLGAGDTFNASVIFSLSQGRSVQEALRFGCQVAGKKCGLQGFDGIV
Sequence of CYP2D6 (P10635 whole entry): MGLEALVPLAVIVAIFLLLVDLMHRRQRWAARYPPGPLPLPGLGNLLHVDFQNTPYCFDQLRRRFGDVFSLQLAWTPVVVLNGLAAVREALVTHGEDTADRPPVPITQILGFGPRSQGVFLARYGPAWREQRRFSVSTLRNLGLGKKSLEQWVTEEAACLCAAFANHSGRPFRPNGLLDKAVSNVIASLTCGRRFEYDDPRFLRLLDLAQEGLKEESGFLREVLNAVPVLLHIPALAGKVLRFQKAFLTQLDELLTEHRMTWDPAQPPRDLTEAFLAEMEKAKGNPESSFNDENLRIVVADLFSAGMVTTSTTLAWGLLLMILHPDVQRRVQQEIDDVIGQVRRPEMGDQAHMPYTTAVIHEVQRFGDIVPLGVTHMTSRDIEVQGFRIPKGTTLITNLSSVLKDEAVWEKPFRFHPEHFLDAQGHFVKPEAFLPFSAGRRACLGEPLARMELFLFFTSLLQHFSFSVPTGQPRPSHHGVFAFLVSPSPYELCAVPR
Sequence of rKHKc (Q02974 whole entry): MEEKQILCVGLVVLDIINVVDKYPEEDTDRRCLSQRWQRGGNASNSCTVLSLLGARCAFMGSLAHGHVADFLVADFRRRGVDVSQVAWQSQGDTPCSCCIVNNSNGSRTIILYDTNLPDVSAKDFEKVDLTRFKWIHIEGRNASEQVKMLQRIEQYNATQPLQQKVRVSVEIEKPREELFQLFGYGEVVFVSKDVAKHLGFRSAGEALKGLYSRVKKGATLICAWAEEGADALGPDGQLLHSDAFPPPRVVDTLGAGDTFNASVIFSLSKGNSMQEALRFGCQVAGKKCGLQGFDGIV
Sequence of mKHKc (P97328 whole entry): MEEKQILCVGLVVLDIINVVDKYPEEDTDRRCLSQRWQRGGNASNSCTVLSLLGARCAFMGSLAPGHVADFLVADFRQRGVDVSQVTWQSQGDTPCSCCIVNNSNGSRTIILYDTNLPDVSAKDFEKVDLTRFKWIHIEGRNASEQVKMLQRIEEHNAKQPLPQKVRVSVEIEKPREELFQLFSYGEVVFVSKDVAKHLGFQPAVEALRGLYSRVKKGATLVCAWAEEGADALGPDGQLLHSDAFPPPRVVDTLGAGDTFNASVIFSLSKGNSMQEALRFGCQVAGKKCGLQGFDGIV
Sequence of CYP3A4 (P08684 whole entry): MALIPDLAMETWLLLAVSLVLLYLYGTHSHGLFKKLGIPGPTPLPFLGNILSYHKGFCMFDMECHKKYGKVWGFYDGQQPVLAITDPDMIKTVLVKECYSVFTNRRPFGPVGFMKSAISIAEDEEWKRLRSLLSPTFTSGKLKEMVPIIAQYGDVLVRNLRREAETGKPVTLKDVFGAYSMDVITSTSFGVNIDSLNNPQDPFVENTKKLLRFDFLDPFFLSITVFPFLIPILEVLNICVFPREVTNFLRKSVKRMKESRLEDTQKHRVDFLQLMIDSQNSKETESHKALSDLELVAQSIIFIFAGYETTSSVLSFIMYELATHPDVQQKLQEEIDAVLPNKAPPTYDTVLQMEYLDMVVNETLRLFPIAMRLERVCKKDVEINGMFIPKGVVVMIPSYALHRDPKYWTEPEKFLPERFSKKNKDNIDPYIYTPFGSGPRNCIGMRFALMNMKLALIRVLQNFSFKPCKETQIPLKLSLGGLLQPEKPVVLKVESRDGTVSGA

With “2-((1R,5S,6S)-3-(7,7-difluoro-2-((S)-2-(trifluoromethyl)azetidin-1-yl)-6,7-dihydro-5H-cyclopenta[d]pyrimidin-4-yl)-3-azabicyclo[3.1.1]heptan-6-yl)acetic acid [Isomer 2 of compound 20]” the EC50 (hKHK-C) was 49.8 nM, the F ([1]; i.g. 5 mg/kg) was 111% and the AUC0-t ([1]; plasma, i.g. 5 mg/kg) was 64058 ng·h/mL. The AUC0-t ([1]; plasma, i.v. 1 mg/kg) was 11592 ng·h/mL, the CL ([1]; plasma, i.v. 1 mg/kg) was 1.35 mL/min/kg and the Vdss ([1]; plasma, i.v. 1 mg/kg) was 0.568 L/kg. It also gave an F ([2]; i.g. 3 mg/kg) of 87.2%, an AUC0-t ([2]; plasma, i.g. 3 mg/kg) of 4807 ng·h/mL and an AUC0-t ([2]; plasma, i.v. 1 mg/kg) of 1838 ng·h/mL. It also gave a CL ([2]; plasma, i.v. 1 mg/kg) of 8.84 mL/min/kg, a Vdss ([2]; plasma, i.v. 1 mg/kg) of 0.977 L/kg and an IC50 (CYP2D6) of over 50000 nM. For the same compound, the IC50 (CYP3A4) was over 50000 nM.
In the case of `C[C@H]1CCN1c1nc(N2CCC(CC(=O)O)C2)c2c(c1C#N)C(F)(F)CC2` (single isomer, unassigned) [Isomer 1 of compound 8], the EC50 (hKHK-C) is reported as 58.6 nM and the EC50 (hKHKa) is reported as 59.7 nM.
In the case of `C[C@H]1CCN1c1nc(N2C[C@H]3C[C@@H](C2)[C@@H]3CC(=O)O)c2c(n1)C(F)(F)CCC2` (single isomer, unassigned; isomer 2) [Isomer 2 of compound 3], the EC50 (hKHK-C) is reported as 37.4 nM, the EC50 (hKHKa) is reported as 51.8 nM and the EC50 (mKHKc) is reported as 134 nM. It also gave an EC50 (rKHKc) of 146 nM.
Compound `C[C@H]1CCN1c1nc(N2C[C@H]3C[C@@H](C2)[C@@H]3CC(=O)O)c2c(n1)C(F)(F)CC2` (single isomer, unassigned; isomer 2) [Isomer 2 of compound 4] has an EC50 (hKHK-C) of 19.4 nM.
Work on `O=C(O)C[C@H]1[C@@H]2C[C@H]1CN(c1nc(N3CC[C@H]3C(F)F)nc3c1CCC3(F)F)C2` (single isomer, unassigned; isomer 2) [Isomer 2 of compound 19] yielded an EC50 (hKHK-C) of 60.6 nM.
With `C[C@H]1CCN1c1nc(N2CC(CC(=O)O)C2)c2c(c1C#N)C(F)(F)CC2` [Compound 7, (S)-2-(1-(4-cyano-5,5-difluoro-3-(2-methylazetidin-1-yl)-6,7-dihydro-5H-cyclopenta[c]pyridin-1-yl)azetidin-3-yl)acetic acid] the EC50 (hKHK-C) was 36.5 nM and the EC50 (hKHKa) was 35.2 nM.
With `[2H]C([2H])([2H])[C@H]1CCN1c1nc(N2C[C@H]3C[C@@H](C2)C3CC(=O)O)c2c(n1)C(F)(F)CC2` (stereo partly drawn) [Compound 16, 2-((1R,5S,6R)-3-(7,7-difluoro-2-((S)-2-(methyl-d3)azetidin-1-yl)-6,7-dihydro-5H-cyclopenta[d]pyrimidin-4-yl)-3-azabicyclo[3.1.1]heptan-6-yl)acetic acid] the EC50 (hKHK-C) was 37.7 nM.
`[2H]C([2H])([2H])[C@H]1CCN1c1nc(N2CC(CC(=O)O)C2)c2c(c1C#N)C(F)(F)CC2` [Compound 18, (S)-2-(1-(4-cyano-5,5-difluoro-3-(2-(methyl-d3)azetidin-1-yl)-6,7-dihydro-5H-cyclopenta[c]pyridin-1-yl)azetidin-3-yl)acetic acid] showed an EC50 (hKHK-C) of 52.7 nM.
